The values that follow come from patent US20240208895A1, “BRANCHED-CHAIN AMINO ACID DERIVATIVES TO TREAT DISEASE” (INTRABIO LTD., priority 2021, published 2024).

Assay [1] addresses T1, monocarboxylate transporter (MCT1) (Homo sapiens, UniProt P53985).
T1 sequence (P53985 1-500): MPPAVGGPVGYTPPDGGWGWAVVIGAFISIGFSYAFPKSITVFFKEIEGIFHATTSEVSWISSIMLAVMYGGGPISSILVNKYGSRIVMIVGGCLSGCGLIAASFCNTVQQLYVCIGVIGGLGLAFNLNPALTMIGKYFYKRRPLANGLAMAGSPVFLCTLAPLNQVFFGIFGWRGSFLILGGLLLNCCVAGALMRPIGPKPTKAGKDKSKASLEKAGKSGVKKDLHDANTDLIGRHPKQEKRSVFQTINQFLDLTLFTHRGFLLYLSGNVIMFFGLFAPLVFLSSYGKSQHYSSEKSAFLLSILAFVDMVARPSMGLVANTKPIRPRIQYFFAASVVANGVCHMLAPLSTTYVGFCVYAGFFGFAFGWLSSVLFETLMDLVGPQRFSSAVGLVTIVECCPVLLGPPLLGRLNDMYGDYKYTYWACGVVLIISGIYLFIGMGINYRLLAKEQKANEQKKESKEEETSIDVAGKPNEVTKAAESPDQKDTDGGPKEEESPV
Particulars: read-out: Km, uptake by MCT1; uptake 1 min, room temperature. Here is the method: The known probe substrates used as positive controls are 3 μM chlorothiazide for OAT1, 2 μM estrone-3-sulfate for OAT3, 10 μM gabapentin for LAT1, 50 μM Gly-Sar for PepT1, 500 μM thiophene-2-glyoxylic acid for MCT1.
Enzyme kinetic data for uptake and metabolism of a Compound of the Disclosure is analysed by fitting the Michaelis-Menten equation to the data. V0=Vmax[S]/Km+[S], where V0 is initial velocity, [S] is substrate concentration, Vmax is maximum velocity and Km is substrate concentration at half Vmax. All fitting is performed using GraphPad Prism 8.4 software (GraphPad Software Inc). No weighting scheme is applied.

For the next assay, the target named is T2, human transporter MCT1 (Homo sapiens, UniProt P53985).
T2 construct: expressed in transfected cells; host or cells: MDCK-II
T2 sequence (P53985 1-500): T1 sequence (P53985 1-500)
In words: Human MCT1-mediated transport in MDCK-II cells (Example 9). The format is cell-based. Particulars: MDCK-II cells expressing human MCT1, pH 5.5, 1 minute, normalized to Vmax of thiophene-2-glyoxylic acid. How it is done: Representative Compounds of the Disclosure are tested in (i) MDCK-II cells expressing human transporter MCT1; and (ii) MDCK-II cells transfected with a control vector (GFP) as control cells for human transporter MCT1. 2-Thiophene-glyoxylic acid (TPGA) is the positive control for transport.
• 1. A stock solution is prepared with the test article (Compound of the Disclosure) in DMSO or in HBSS-Bis-Tris. • 2. Final assay solutions of probe substrate or test article contain 0.5% (v/v) DMSO (vehicle control). • 3. Test article concentrations are 10 μM, 30 μM, 100 μM, 300 μM, 1000 μM, 3000 μM, and 10000 μM.
MDCK-II cells are maintained in DMEM with low glucose and 10% FBS. Cells passages up to 40 are seeded at 60K±10K cells/well on 96-well, transwell membrane plates approximately 24 hours before transfection. Transport assays are carried out approximately 48 hours after transfection.
• 1. Test system: • a. Test system: 96-well cell culture plate with wells containing a monolayer of MDCK-II cells grown on a permeable support and a corresponding 96-well receiver tray. Cell plates are maintained at 37° C. in 5% CO2 atmosphere prior to initiation of the transport experiment. • b. Pre-incubation is conducted in HBSS, pH 7.4. Transport experiments are conducted in HBSS with Bis-Tris, pH 5.5, without phenol red. Pre-incubation and incubation are conducted at ambient temperatures. • c. Each condition is run in triplicate wells. • d. […] The result from the control cells is used to correct for substrate permeation by routes other than the transporter being investigated in the study. • 2. Prepare the 96-well plate as follows: • a. Wash the basal side of the culture plate insert with HBSS three times. After the final wash, blot the basal side of the wells and keep this side dry. • b. Wash the culture plate wells with HBSS three times. The wells of the culture plate serve as the apical compartment. • 3. Aspirate the final wash from the culture plate. The wells of the culture plate serve as the apical compartment. Add 100 μL of HBSS pH 7.4 pre-incubation buffer containing vehicle to the apical compartments. • 4. Incubate the plates with orbital shaking at approximately 60 RPM for the pre-incubation time specified in Table 1 of this protocol. • 5. Aspirate the pre-incubation buffer from the apical compartment of the plates. Add 100 μL of the experimental buffer that is prepared as follows and maintained at ambient temperatures. • a. For the probe substrate transport assay, the HBSS with Bis-Tris, pH 5.5 in each well contains the probe substrate at 500 μM (positive control for transport) and vehicle control. • b. For the test article assays, the HBSS with Bis-Tris, pH 5.5 in each well contains the test article at 10 μM, 30 μM, 100 μM, 300 μM, 1000 μM, 3000 μM, and 10000 μM. • 6. Incubate at ambient temperature with orbital shaking at approximately 60 RPM for the incubation time of 1 minute. • 7. […]
• 1. The amount of radiolabeled probe substrate will be quantified with radiometric detection on a 1450 Microbeta (Perkin-Elmer). • 2. The amount of non-radiolabeled probe substrate or test article will be quantified by LC-MS/MS. • 3. […] For uptake assays, the net transporter-mediated uptake rate (V) of the substrate by each SLC transporter will be calculated as follows:
[formula] • 5. For transport kinetics assessment, Km and Vmax will be calculated by non-linear regression using the Michaelis-Menten equation. • 6. […]

As for `CC(=O)N[C@@H](CC(C)C)C(=O)O` [N-acetyl-L-leucine], the Michaelis constant (Km) in assay [1] amounted to 3000 µM. The “uptake mediated by MCT1” value on human transporter MCT1 is reported as “transported”.

As a reminder, the Km is the substrate concentration at which the rate is half of its maximum.
